Consider eleven compounds from patent publication EP3807270B1, “NOVEL HETEROARYL HETEROCYCLYL COMPOUNDS FOR THE TREATMENT OF AUTOIMMUNE DISEASE” (F. Hoffmann-La Roche AG, priority 2018, dated 2019).

This assay has as its target T1, hTLR9 (Homo sapiens, UniProt Q9NR96).
T1 sequence (Q9NR96 26-1032): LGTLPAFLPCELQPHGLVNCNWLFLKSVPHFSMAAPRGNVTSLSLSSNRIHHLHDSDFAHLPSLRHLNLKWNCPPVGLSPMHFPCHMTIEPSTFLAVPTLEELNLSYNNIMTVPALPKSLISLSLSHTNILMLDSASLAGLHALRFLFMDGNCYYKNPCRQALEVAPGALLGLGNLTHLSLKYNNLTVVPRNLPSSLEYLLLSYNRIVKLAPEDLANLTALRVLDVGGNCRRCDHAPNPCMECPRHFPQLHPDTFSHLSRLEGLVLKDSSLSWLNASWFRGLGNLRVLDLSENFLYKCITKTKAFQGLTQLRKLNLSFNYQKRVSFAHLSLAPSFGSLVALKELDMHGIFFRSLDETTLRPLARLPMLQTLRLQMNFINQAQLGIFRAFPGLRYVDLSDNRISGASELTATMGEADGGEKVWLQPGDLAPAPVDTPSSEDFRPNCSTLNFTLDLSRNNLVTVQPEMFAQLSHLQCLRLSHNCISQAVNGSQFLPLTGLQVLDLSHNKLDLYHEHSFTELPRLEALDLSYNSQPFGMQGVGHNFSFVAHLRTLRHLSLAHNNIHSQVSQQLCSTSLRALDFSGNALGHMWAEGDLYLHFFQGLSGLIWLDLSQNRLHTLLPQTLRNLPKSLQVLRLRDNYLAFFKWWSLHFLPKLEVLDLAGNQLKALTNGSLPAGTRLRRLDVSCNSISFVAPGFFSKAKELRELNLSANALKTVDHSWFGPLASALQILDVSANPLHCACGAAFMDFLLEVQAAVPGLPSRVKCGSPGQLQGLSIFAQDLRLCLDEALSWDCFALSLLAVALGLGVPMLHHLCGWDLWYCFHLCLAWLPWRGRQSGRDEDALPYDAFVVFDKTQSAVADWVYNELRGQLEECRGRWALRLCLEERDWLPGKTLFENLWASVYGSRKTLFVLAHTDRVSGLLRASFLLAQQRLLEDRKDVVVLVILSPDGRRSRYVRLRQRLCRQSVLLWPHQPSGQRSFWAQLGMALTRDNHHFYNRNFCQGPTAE
The assay can be described thus: HEK293-Blue-hTLR-9 cells assay (SEAP reporter, ODN2006 stimulation). The format is cell-based. Set-up: host or cells: HEK293 (HEK-Blue). The following applies: HEK293-Blue-hTLR9 cells, ODN2006, 20 hrs; read-out: HEK/hTLR9 IC50. The source says:
A stable HEK293-Blue-hTLR-9 cell line was purchased from InvivoGen (Cat.#: hkb-htlr9, San Diego, California, USA). These cells were originally designed for studying the stimulation of human TLR9 by monitoring the activation of NF-κB. A SEAP (secreted embryonic alkaline phosphatase) reporter gene was placed under the control of the IFN-β minimal promoter fused to five NF-κB and AP-1-binding sites. The SEAP was induced by activating NF-κB and AP-1 via stimulating HEK-Blue hTLR9 cells with TLR9 ligands. Therefore, the reporter expression was declined by TLR9 antagonist under the stimulation of a ligand, such as ODN2006 (Cat.#: tlrl-2006-1, Invivogen, San Diego, California, USA), for incubation of 20 hrs. The cell culture supernatant SEAP reporter activity was determined using QUANTI-Blue™ kit (Cat.#: rep-qb 1, Invivogen, San Diego, California, USA) at a wavelength of 640 nm, a detection medium that turns purple or blue in the presence of alkaline phosphatase.
HEK293-Blue-hTLR9 cells were incubated at a density of 250,000-450,000 cells/mL in a volume of 170 µL in a 96-well plate in Dulbecco's Modified Eagle's medium (DMEM) containing 4.5 g/L glucose, 50 U/mL penicillin, […], […], 2 mM L-glutamine, 10% (v/v) heat-inactivated fetal bovine serum with addition of 20 µL test compound in a serial dilution in the presence of final DMSO at 1% and 10 µL of 20uM ODN2006 in above DMEM, perform incubation under 37 °C in a CO2 incubator for 20 hrs. Then 20 µL of the supernatant from each well was incubated with 180 µL Quanti-blue substrate solution at 37 °C for 2 hrs and the absorbance was read at 620-655 nm using a spectrophotometer. The signaling pathway that TLR9 activation leads to downstream NF-κB activation has been widely accepted, and therefore similar reporter assay was modified for evaluating TLR9 antagonist.

`C[C@@H]1CN(c2ccc(C#N)c3ncccc23)C[C@H](CN2CCN(c3cc4c(cn3)CNC4)CC2)O1` [Example 18, 5-[(2S,6R)-2-[[4-(2,3-dihydro-1H-pyrrolo[3,4-c]pyridin-6-yl)piperazin-1-yl]methyl]-6-methyl-morpholin-4-yl] quinoline-8-carbonitrile]: the IC50 was found to be 98 nM.

With `C[C@@H]1CN(c2ccc(C#N)c3ncccc23)C[C@H](CN2CCN(c3cc4c(cn3)CNCC4)CC2)O1` [Example 19, 5-[(2R,6S)-2-methyl-6-[[4-(5,6,7,8-tetrahydro-2,7-naphthyridin-3-yl)piperazin-1-yl]methyl]morpholin-4-yl]quinoline-8-carbonitrile], the IC50 was 63 nM.

`C[C@@H]1CN(c2ccc(C#N)c3ncccc23)C[C@H](CN2CCN(c3cnc4c(c3)CNCC4)CC2)O1` [Example 21, 5-[(2R,6S)-2-methyl-6-[[4-(5,6,7,8-tetrahydro-1,6-naphthyridin-3-yl)piperazin-1-yl]methyl]morpholin-4-yl]quinoline-8-carbonitrile]: the IC50 came to 52 nM.

As to `C[C@@H]1CN(c2ccc(C#N)c3nccnc23)C[C@H](CN2CCN(c3cnc4c(c3)CNC4)CC2)O1` [Example 25, 8-[(2S,6R)-2-[[4-(6,7-dihydro-5H-pyrrolo[3,4-b]pyridin-3-yl)piperazin-1-yl]methyl]-6-methyl-morpholin-4-yl] quinoxaline-5-carbonitrile], the IC50 came out at 90 nM.

Take `C[C@@H]1CN(c2ccc(C#N)n3ncc(F)c23)C[C@H](CN2CCN(c3cnc4c(c3)CNC4)CC2)O1` [Example 26, 4-[(2S,6R)-2-[[4-(6,7-dihydro-5H-pyrrolo[3,4-b]pyridin-3-yl)piperazin-1-yl]methyl]-6-methyl-morpholin-4-yl]-3-fluoro-pyrazolo[1,5-a]pyridine-7-carbonitrile]: the IC50 amounted to 119 nM.

For the compound `C[C@@H]1CN(c2ccc(C#N)c3ncccc23)C[C@H](CN2CCN(c3ncc4c(n3)CCNC4)CC2)O1` [Example 29, 5-[(2R,6S)-2-methyl-6-[[4-(5,6,7,8-tetrahydropyrido[4,3-d]pyrimidin-2-yl)piperazin-1-yl]methyl]morpholin-4-yl]quinoline-8-carbonitrile], the IC50 was 122 nM.

`C[C@@H]1CN(c2ccc(C#N)c3ncccc23)C[C@H](CN2CCN(c3ccc4c(n3)CNC4)CC2)O1` [Example 30, 5-[(2S,6R)-2-[[4-(6,7-dihydro-5H-pyrrolo[3,4-b]pyridin-2-yl)piperazin-1-yl]methyl]-6-methyl-morpholin-4-yl] quinoline-8-carbonitrile]: the IC50 amounted to 41 nM.

For the compound `C[C@@H]1CN(c2ccc(C#N)c3ncccc23)C[C@H](CN2CCN(c3nc4c(s3)CNCC4)CC2)O1` [Example 31, 5-[(2R,6S)-2-methyl-6-[[4-(4,5,6,7-tetrahydrothiazolo[5,4-c]pyridin-2-yl)piperazin-1-yl]methyl]morpholin-4-yl]quinoline-8-carbonitrile], the IC50 came to 140 nM.

With `C[C@@H]1CN(c2ccc(C#N)c3ncccc23)C[C@H](CN2CCC(Nc3ncc4c(n3)CNC4)C2)O1` (stereo partly drawn) [Example 32, 5-[(2S,6R)-2-[[3-(6,7-dihydro-5H-pyrrolo[3,4-d]pyrimidin-2-ylamino)pyrrolidin-1-yl]methyl]-6-methyl-morpholin-4-yl]quinoline-8-carbonitrile], the IC50 amounted to 99 nM.

`C[C@@H]1CN(c2ccc(C#N)c3ncccc23)C[C@H](CN2CCCN(c3nc4c(s3)CNCC4)CC2)O1` [Example 33, 5-[(2R,6S)-2-methyl-6-[[4-(4,5,6,7-tetrahydrothiazolo[5,4-c]pyridin-2-yl)-1,4-diazepan-1-yl]methyl]morpholin-4-yl]quinoline-8-carbonitrile]: the IC50 is 90 nM.

For the compound `C[C@@H]1CN(c2ccc(C#N)c3ncccc23)C[C@H](CN2CCN(c3ccc4c(n3)CCN(C)C4)CC2)O1` [Example 34, 5-[(2R,6S)-2-methyl-6-[[4-(6-methyl-7,8-dihydro-5H-1,6-naphthyridin-2-yl)piperazin-1-yl]methyl]morpholin-4-yl]quinoline-8-carbonitrile], the IC50 stood at 86 nM.
